Reference: patent publication US7560569B2, “Bicycloamide derivative” (Kyorin Pharmaceutical Co., Ltd, priority 2004, dated 2009)

What was measured:
[1] = target: plasma dipeptidylpeptidase IV (UniProt P27487); assay: In vitro dipeptidylpeptidase IV inhibition (H-Gly-Pro-AMC hydrolysis, fluorometry); format: biochemical; settings: plasma diluted 8-fold, H-Gly-Pro-AMC.HBr substrate, room temperature 20 minutes
Procedure: The concentration of free 7-amino-4-methyl-coumarin (AMC) generated by hydrolysis of H-Gly-Pro-AMC.HBr substrate by plasma dipeptidylpeptidase IV was determined by fluorometry.
A 20 μL of buffer (25 mmol/L hepes, 140 mmol/L sodium chloride, 1% bovine serum albumin, 80 mmol/L magnesium chloride hexahydrate, pH 7.4) containing each compound was added to 20 μL of plasma diluted 8-fold with saline in a well of a 96-well flat bottom plate. The plate was left at room temperature for 5 minutes and 10 μL of 0.1 mmol/L H-Gly-Pro-AMC.HBr solution was added to each well to initiate the reaction. […] Using a fluorescent plate reader, the free AMC concentration was determined by exciting the samples at 355 nm and measuring the fluorescence intensity at 460 nm.

[2] = target: T1, plasma dipeptidylpeptidase IV (Mus musculus, UniProt P28843); assay: Inhibition of plasma dipeptidylpeptidase IV activity in mice by oral administration; format: in vivo; settings: male ICR mice, 0.1 mg/mL at 10 mL/kg, plasma 30 minutes after administration vs before
T1 construct: The blood samples were centrifuged at 6000 rpm for 2 minutes to separate plasma; tissue Charles River Laboratories Japan; host or cells: plasma of male ICR mice
T1 sequence (P28843 37-760 limits assumed): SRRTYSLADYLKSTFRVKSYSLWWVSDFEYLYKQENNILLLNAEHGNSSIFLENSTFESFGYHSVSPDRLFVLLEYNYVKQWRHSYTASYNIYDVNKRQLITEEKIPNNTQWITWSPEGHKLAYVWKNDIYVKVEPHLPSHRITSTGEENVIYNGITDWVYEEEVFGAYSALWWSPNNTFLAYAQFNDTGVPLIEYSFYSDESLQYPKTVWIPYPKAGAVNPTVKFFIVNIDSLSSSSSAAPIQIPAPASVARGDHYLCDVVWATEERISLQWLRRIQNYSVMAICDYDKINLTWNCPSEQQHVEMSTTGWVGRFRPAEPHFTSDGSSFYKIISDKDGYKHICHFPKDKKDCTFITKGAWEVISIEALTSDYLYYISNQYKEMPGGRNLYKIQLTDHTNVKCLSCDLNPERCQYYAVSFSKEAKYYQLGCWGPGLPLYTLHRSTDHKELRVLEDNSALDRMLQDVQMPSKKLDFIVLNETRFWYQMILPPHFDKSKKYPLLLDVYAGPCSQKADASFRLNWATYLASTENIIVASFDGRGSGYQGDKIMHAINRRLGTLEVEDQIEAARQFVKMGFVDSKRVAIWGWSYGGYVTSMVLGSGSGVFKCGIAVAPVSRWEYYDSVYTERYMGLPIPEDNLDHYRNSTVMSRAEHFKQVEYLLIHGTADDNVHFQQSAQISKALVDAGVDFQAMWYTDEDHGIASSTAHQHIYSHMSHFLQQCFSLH
Procedure: Each compound was suspended in 0.3% sodium carboxymethylcellulose to a concentration of 0.1 mg/mL. The preparation was orally administered to 8-week old male ICR mice (Charles River Laboratories Japan) at a dose of 10 mL/kg. Using an EDTA 2K-treated capillary tube, blood samples were collected from the tail vein before administration and 30 minutes after administration. The blood samples were centrifuged at 6000 rpm for 2 minutes to separate plasma. […] The inhibition was determined from the decrease in the enzymatic activity from the initial activity (% inhibition={(activity before administration−activity after administration)/(activity before administration)}×100).

Structure (SMILES)	IC50 [1]	inhibition at 100 µg/mL (stock) [2]
N#C[C@@H]1C[C@H](F)CN1C(=O)CNC12CCC(C(=O)N3CC[C@@H](F)C3)(CC1)CC2 [Example 16, (2S,4S,3′ R)-4-fluoro-1-[[N-[4-(3-fluoropyrrolidin-1-yl)carbonylbicyclo[2.2.2]oct-1-yl]amino]acetyl]pyrrolidine-2-carbonitrile]	0.082 nM	–
CN(C)C(=O)C12CCC(NCC(=O)N3C[C@@H](F)C[C@H]3C#N)(CC1)CC2 [Example 9, (2S,4S)-1-[[N-[4-(dimethylamino)carbonylbicyclo[2.2.2]oct-1-yl]amino]acetyl]-4-fluoropyrrolidine-2-carbonitrile]	–	87%
CN1CCN(C(=O)C23CCC(NCC(=O)N4C[C@@H](F)C[C@H]4C#N)(CC2)CC3)CC1 [Example 8, (2S,4S)-4-fluoro-1-[[N-[4-(4-methylpiperazin-1-yl)carbonylbicyclo[2.2.2]oct-1-yl]amino]acetyl]pyrrolidine-2-carbonitrile]	0.83 nM	–
N#C[C@@H]1C[C@H](F)CN1C(=O)CNC12CCC(C(=O)N3CCC3)(CC1)CC2 [Example 15, (2S,4S)-1-[[[4-(azetidin-1-yl)carbonylbicyclo[2.2.2]oct-1-yl]amino]acetyl]-4-fluoropyrrolidine-2-carbonitrile]	–	66%

More lines, now with the values ahead:

IC50 [1]	inhibition at 100 µg/mL (stock) [2]	Structure (SMILES)
0.057 nM	70%	C=CCNC(=O)C12CCC(NCC(=O)N3C[C@@H](F)C[C@H]3C#N)(CC1)CC2 [Example 52, (2S,4S)-4-fluoro-1-[[N-[4-[N-(2-propenyl)amino]carbonylbicyclo[2.2.2]oct-1-yl]amino]acetyl]pyrrolidine-2-carbonitrile]
0.89 nM	71%	N#C[C@@H]1C[C@H](F)CN1C(=O)CNC12CCC(C(N)=O)(CC1)CC2 [Example 1, (2S,4S)-1-[[(4-carbamoylbicyclo[2.2.2]oct-1-yl)amino]acetyl]-4-fluoropyrrolidine-2-carbonitrile]
–	77%	CC(C)(C)NC(=O)C12CCC(NCC(=O)N3C[C@@H](F)C[C@H]3C#N)(CC1)CC2 [Example 30, (2S,4S)-1-[[N-[4-(N-2,2-dimethylethylamino)carbonylbicyclo[2.2.2]oct-1-yl]amino]acetyl]-4-fluoropyrrolidine-2-carbonitrile]
